What was measured:
[1] = test system: CDP-choline levels in the brain; assay: Brain CDP-choline levels after oral UMP in gerbils; assay type: in vivo; details: UMP 1 mmole/kg by gavage, for 30 min, r=0.98, p<0.02
Experimental: Data was pooled from three experiments, with group sizes ranging from 5 to 16 animals. Male gerbils (60-80 g) were given UMP (1 mmole/kg body weight) by gavage and sacrificed at the indicated times. After brain homogenization, protein precipitation, and lyophilization as described for Example 3, samples were analyzed by HPLC-UV.
Brain tissue or cells was dissolved in methanol/chloroform (1:2 vol/vol), centrifuged, and the aqueous phase was dried under vacuum, resuspended in 100-200 μL water and separated by HPLC on an ion-exchange column (Alltech Hypersil APS-2, 5 μM, 250×4.6 mm). CDP-choline was eluted with a linear gradient of NaH2PO4 buffers A (1.75 mM NaH2PO4, pH 2.9) and B (500 mM, pH 4.5), which allowed resolution of CDP-choline from closely co-eluting substances such as UMP over 40 min. The retention time for CDP-choline was 9.5 min. Individual nucleotide peaks were detected by UV absorption at […], and were identified by comparison with the positions of authentic standards, as well as by the addition of nucleotide standards to selected samples.

[2] = Body weight of EC and IC rats on UMP diet; assay type: in vivo, Sprague Dawley rats; details: 0.1% UMP-2Na+ diet vs control groups
Experimental: Animals were maintained under standard environmental conditions (room temperature, 20-25° C.; relative humidity, 55-60%; light/dark schedule, 12/12). Seven pregnant Sprague Dawley rats (Charles River Laboratories) were obtained 1 wk prior to giving birth. […] At this time, thirty-two rats were matched according to body weight, and assigned to either IC or EC conditions.
Rats were housed in the same rack in plastic cages (52×32×20 cm high) with wire lids. Bedding and water were regularly changed, and animals were weighed each week, at which time general health assessments were made. Animals had ad libitim access to chow and water. EC rats were housed in groups of 2-3 animals Plastic toys (blocks, balls, PVC tubing, etc) placed in the EC cages were rotated between groups weekly; new toys were introduced monthly EC rats were taken to a “playroom” (12×6 ft; containing cabinets, desks, chairs, boxes, and toys) every other day for 45 min. The IC rats were housed individually, without toys, and handled three times per week to acclimatize the animals to experimenter handling and in order to alleviate fear and anxiety in subsequent behavioral training procedures. To avoid the typical weight gain caused by impoverished conditions (relative to enriched rats), IC rats were allowed to exercise three times per week for 15 min in an empty 4×6 ft room with only the experimenter present. […]

With O=c1ccn([C@@H]2O[C@H](COP(=O)([O-])[O-])[C@@H](O)[C@H]2O)c(=O)[nH]1.[Na+].[Na+] [UMP, uridine-5′-monophosphate disodium] the “Brain CDP-choline levels” value [1] was “rose significantly in a linear fashion” and the Mean body weights [2] was “No significant differences”.
